According to ChEMBL document CHEMBL1687789, “Characteristics and dissemination of mosaic penicillin-binding protein 2-harboring multidrug-resistant Neisseria gonorrhoeae isolates with reduced cephalosporin susceptibility in northern Taiwan” (2010):
Converted amounts (≈) assume the structure as drawn.

Assays:
Format in all cases: functional
Neisseria gonorrhoeae [1] = assay: Antimicrobial activity against multidrug-resistant Neisseria gonorrhoeae isolates harboring mosaic penicillin-binding protein 2 penA by Etest
Neisseria gonorrhoeae [2] = assay: Antimicrobial activity against Neisseria gonorrhoeae isolates harboring non-mosaic penicillin-binding protein 2 penA by Etest
Neisseria gonorrhoeae [3] = assay: Antimicrobial activity against multidrug-resistant Neisseria gonorrhoeae isolates by Etest
Neisseria gonorrhoeae [4] = assay: Antimicrobial activity against multidrug-resistant Neisseria gonorrhoeae isolates assessed as resistant isolates by disk susceptibility test
Neisseria gonorrhoeae [5] = assay: Antimicrobial activity against multidrug-resistant Neisseria gonorrhoeae isolates harboring mosaic penicillin-binding protein 2 penA assessed as resistant isolates by disk susceptibility test
Neisseria gonorrhoeae [6] = assay: Antimicrobial activity against Neisseria gonorrhoeae isolates harboring non-mosaic penicillin-binding protein 2 penA assessed as resistant isolates by disk susceptibility test

| SMILES | MIC (Neisseria gonorrhoeae [1]) [µg/mL] | MIC (Neisseria gonorrhoeae [2]) [µg/mL] | MIC (Neisseria gonorrhoeae [3]) [µg/mL] | Activity (Neisseria gonorrhoeae [4]) [%] | Activity (Neisseria gonorrhoeae [5]) [%] | Activity (Neisseria gonorrhoeae [6]) [%] |
| --- | --- | --- | --- | --- | --- | --- |
| CO/N=C(\C(=O)N[C@@H]1C(=O)N2C(C(=O)O)=C(CSc3nc(=O)c(O)nn3C)CS[C@H]12)c1csc(N)n1 [CEFTRIAXONE] | 0.023 (≈ 0.0415 µM) | 0.002 (≈ 0.00361 µM) | 0.002 (≈ 0.00361 µM) | – | – | – |
| CC1(C)S[C@@H]2[C@H](NC(=O)Cc3ccccc3)C(=O)N2[C@H]1C(=O)O [PENICILLIN G] | – | – | – | 62.2 | 71 | 58.9 |
| O=C(O)c1cn(C2CC2)c2cc(N3CCNCC3)c(F)cc2c1=O [CIPROFLOXACIN] | – | – | – | 88.6 | 100 | 84.3 |
| C=CC1=C(C(=O)O)N2C(=O)[C@@H](NC(=O)/C(=N\OCC(=O)O)c3csc(N)n3)[C@H]2SC1 [CEFIXIME] | 0.125 (≈ 0.276 µM) | 0.016 (≈ 0.0353 µM) | 0.016 (≈ 0.0353 µM) | – | – | – |
